We go through 33 compounds from patent US20230083973A1, “SUBSTITUTED CYCLOPROPYL-2,2'-BIP[…], ANALOGUES THEREOF, AND METHODS USING SAME” (priority 2019, published 2023).

The first test has as its system HBsAg. Put plainly: HBsAg assay: inhibition of HBsAg in HepG2.2.15 cells (chemiluminescence immunoassay of supernatant). It is filed as cell-based, hepatitis B virus. Conditions: Hepatitis B virus, HepG2.2.15, 144 h, read-out: sAg EC50, HepG2.2.15 cells; HBsAg in supernatant at day 6 after exposure to compound; 0.5% DMSO. How it is done:
Inhibition of HBsAg was determined in HepG2.2.15 cells. Cells were maintained in culture medium containing 10% fetal calf serum, […], Glutamine, penicillin/streptomycin. Cells were seeded in 96-well collagen-coated plate at a density of 30,000 cells/well. Serially diluted compounds were added to cells next day at the final DMSO concentration of 0.5%. Cells were incubated with compounds for 2-3 days, after which medium was removed. Fresh medium containing compounds was added to cells for additional 3-4 days. At day 6 after exposure of compounds, supernatant was collected, the HBsAg immunoassay (microplate-based chemiluminescence immunoassay kits, CLIA, Autobio Diagnosics Co., Zhengzhou, China, Catalog # CL0310-2) was used to determine the level of HBsAg according to manufactory instruction. Dose-response curves were generated and the EC50 value (effective concentrations that achieved 50% inhibitory effect) were determined using XLfit software. In addition, cells were seeded at a density of 5,000 cells/well for determination of cell viability in the presence and absence of compounds by using CellTiter-Glo reagent (Promega).
Table 1 illustrates EC50 values obtained by the HBsAg assay for selected compounds.
`Fc1ccc(C2CN(c3cc([C@@H]4C[C@H]4c4cnc(-c5ncccn5)nc4)cc(F)c3F)C2)cc1F` (relative stereo) [Example 214, trans-5-(2-(3-(3-(3,4-difluorophenyl)azetidin-1-yl)-4,5-difluorophenyl)cyclopropyl)-2,2′-bipyrimidine]: the 50% effective concentration (EC50) is 0.046 µM.
Still for that read-out and setting: next, `CN(C)C(=O)c1cc(C2CC2c2cnc(-c3ncccn3)nc2)ccc1Cl` (single isomer, unassigned) [Example 203, trans-5-(2-([2,2′-Bipyrimidin]-5-yl)cyclopropyl)-2-chloro-N,N-dimethylbenzamide]: 6 µM.
On the same count and under the same terms, with `Fc1cc([C@@H]2C[C@H]2c2cnc(-c3ncccn3)nc2)cc(F)c1F` (relative stereo) [Example 160, trans-5-(2-(3,4,5-Trifluorophenyl)cyclopropyl)-2,2′-bipyrimidine] the figure was 0.27 µM.
On the same count and under the same terms, with `Cc1cnn(-c2cc([C@@H]3C[C@H]3c3cnc(-c4ncccn4)nc3)cc(F)c2F)c1` (relative stereo) [Example 232, trans-5-(2-(3,4-Difluoro-5-(4-methyl-1H-pyrazol-1-yl)phenyl)cyclopropyl)-2,2′-bipyrimidine] the figure was 0.028 µM.
In the case of `O[C@@H]1CCN(c2cc(C3CC3c3cnc(-c4ncccn4)nc3)ccc2F)C1` (single isomer, unassigned) [Example 69], the EC50 came to 0.17 µM.
Same read-out and setting: next, `Cc1nc2c(F)cc([C@@H]3C[C@H]3c3cnc(-c4ncccn4)nc3)cc2n1C(C)C` (relative stereo) [Example 271, trans-6-(2-([2,2′-Bipyrimidin]-5-yl)cyclopropyl)-4-fluoro-1-isopropyl-2-methyl-1H-benzo[d]imidazole]: 0.25 µM.
Still for that read-out and setting: next, `Fc1cc(C2CC2c2cnc(-c3ncccn3)nc2)cc(N2CCCC2)c1F` (single isomer, unassigned) [Example 92, trans-5-(2-(3,4-Difluoro-5-(pyrrolidin-1-yl)phenyl)cyclopropyl)-2,2′-bipyrimidine]: 0.024 µM; `CN(c1cc([C@@H]2C[C@H]2c2cnc(-c3ncccn3)nc2)cc(F)c1F)C1COC1` (relative stereo) [Example 233, trans-N-(5-(2-([2,2′-Bipyrimidin]-5-yl)cyclopropyl)-2,3-difluorophenyl)-N-methyloxetan-3-amine]: 0.084 µM.
On to `COc1cc([C@@H]2C[C@H]2c2cnc(-c3ccccn3)nc2)cc(OC)c1F` (relative stereo) [Example 175, trans-5-(2-(4-Fluoro-3,5-dimethoxyphenyl)cyclopropyl)-2-(pyridin-2-yl)pyrimidine], for which the 50% effective concentration (EC50) was found to be 0.35 µM.
Consider `COc1cc([C@@H]2C[C@H]2c2cnc(-c3ncccc3F)nc2)cc(F)c1F` (relative stereo) [Example 179, trans-5-(2-(3,4-Difluoro-5-methoxyphenyl)cyclopropyl)-2-(3-fluoropyridin-2-yl)pyrimidine], for which the EC50 is 0.37 µM.

The same test, now with this note: read-out: sAg EC50; HepG2.2.15 cells; HBsAg in supernatant at day 6 after exposure to compound; 0.5% DMSO.
For `COc1cc(C2CC2c2cnc(-c3ncccn3)nc2)c(-c2ccccc2)cc1Cl` (single isomer, unassigned) [Example 158, trans-5-(2-(5-Chloro-4-methoxy-[1,1′-biphenyl]-2-yl)cyclopropyl)-2,2′-bipyrimidine], the EC50 is 3 µM.
Same read-out and setting: next, `Fc1ccc(C2CC2c2cnc(-c3ncccn3)nc2)cc1F` (single isomer, unassigned) [Example 14, trans-5-(2-(3,4-Difluorophenyl)cyclopropyl)-2,2′-bipyrimidine]: 1 µM; `COc1c(Cl)ccc(C2CC2c2cnc(-c3ncccn3)nc2)c1OC` (single isomer, unassigned) [Example 115, trans-5-(2-(4-Chloro-2,3-dimethoxyphenyl)cyclopropyl)-2,2′-bipyrimidine]: 0.32 µM.
In the case of `COc1cc(C2CC2c2cnc(-c3ncccn3)nc2OC)ccc1F` (single isomer, unassigned) [Example 80, trans-5-(2-(4-Fluoro-3-methoxyphenyl)cyclopropyl)-4-methoxy-2,2′-bipyrimidine], the EC50 stood at 0.1 µM.
As to `COc1cc(C2CC2c2cnc(-c3ncccn3)nc2)c(C)cc1Cl` (single isomer, unassigned) [Example 52, trans-5-(2-(4-Chloro-5-methoxy-2-methylphenyl)cyclopropyl)-2,2′-bipyrimidine], the EC50 was found to be 1 µM.
On the same count and under the same terms, with `COc1cc(C2CC2c2cnc(-c3ncccn3)nc2)cc(F)c1F` (single isomer, unassigned) [Example 85, trans-5-(2-(3,4-Difluoro-5-methoxyphenyl)cyclopropyl)-2,2′-bipyrimidine] the figure was 0.029 µM; with `OC1CN(c2cc(C3CC3c3cnc(-c4ncccn4)nc3)ccc2F)C1` (single isomer, unassigned) [Example 53, trans-1-(5-(2-([2,2′-Bipyrimidin]-5-yl)cyclopropyl)-2-fluorophenyl)azetidin-3-ol], 0.5 µM.
The same measure, in the same setting: with `CC1(C)CN(c2cc(C3CC3c3cnc(-c4ncccn4)nc3)cc(F)c2F)C1` (single isomer, unassigned) [Example 139, trans-5-(2-(3-(3,3-Dimethylazetidin-1-yl)-4,5-difluorophenyl)cyclopropyl)-2,2′-bipyrimidine] the figure was 0.088 µM; with `Fc1cc([C@@H]2C[C@H]2c2cnc(-c3ncccn3)nc2)cc(-n2cccn2)c1F` (single isomer, unassigned) [Example 254, trans-5-(2-(3,4-Difluoro-5-(1H-pyrazol-1-yl)phenyl)cyclopropyl)-2,2′-bipyrimidine], 0.047 µM; with `Oc1cnn(-c2cc(C3CC3c3cnc(-c4ncccn4)nc3)cc(F)c2F)c1` (single isomer, unassigned) [Example 259, trans-1-(5-(2-([2,2′-Bipyrimidin]-5-yl)cyclopropyl)-2,3-difluorophenyl)-1H-pyrazol-4-ol], 2 µM.
Regarding `CNC(=O)c1cc(C2CC2c2cnc(-c3ncccn3)nc2)ccc1Cl` (single isomer, unassigned) [Example 201, trans-5-(2-([2,2′-Bipyrimidin]-5-yl)cyclopropyl)-2-chloro-N-methylbenzamide], the EC50 came out at 9 µM.
Same read-out and setting: next, `COc1cc(C2CC2c2cnc(-c3ncccn3)nc2)ccc1F` (single isomer, unassigned) [Example 10, trans-5-(2-(4-Fluoro-3-methoxyphenyl)cyclopropyl)-2,2′-bipyrimidine]: 0.04 µM; `COc1cc(C2CC2c2cnc(-c3ncccn3)nc2OC)ccc1F` (single isomer, unassigned) [Example 81, trans-5-(2-(4-Fluoro-3-methoxyphenyl)cyclopropyl)-4-methoxy-2,2′-bipyrimidine]: 0.23 µM; `Fc1ccc(C2CC2c2cnc(-c3ncccn3)nc2)cc1N1CCCCC1` (single isomer, unassigned) [Example 196, trans-5-(2-(4-Fluoro-3-(piperidin-1-yl)phenyl)cyclopropyl)-2,2′-bipyrimidine]: 0.21 µM.
Same read-out and setting: next, `CC1(C)CCN(c2cc(C3CC3c3cnc(-c4ncccn4)nc3)cc(F)c2F)C1` (single isomer, unassigned) [Example 221, trans-5-(2-(3-(3,3-Dimethylpyrrolidin-1-yl)-4,5-difluorophenyl)cyclopropyl)-2,2′-bipyrimidine]: 0.32 µM; `O[C@H]1CCN(c2cc(C3CC3c3cnc(-c4ncccn4)nc3)ccc2F)C1` (single isomer, unassigned) [Example 65]: 0.58 µM.
Same read-out and setting: with `Fc1cc(C2CC2c2cnc(-c3ncccn3)nc2)cc(-n2ccnc2)c1F` (single isomer, unassigned) [Example 181, trans-5-(2-(3,4-Difluoro-5-(1H-imidazol-1-yl)phenyl)cyclopropyl)-2,2′-bipyrimidine] the figure was 0.39 µM; with `COc1cc(C2CC2c2cnc(-c3ncccn3)nc2N2CCCCC2)ccc1F` (single isomer, unassigned) [Example 145, trans-5-(2-(4-Fluoro-3-methoxyphenyl)cyclopropyl)-4-(piperidin-1-yl)-2,2′-bipyrimidine], 0.7 µM; with `Fc1ccc(C2CC2c2ccnc(-c3ncccn3)n2)cc1F` (single isomer, unassigned) [Example 6, trans-4-(2-(3,4-Difluorophenyl)cyclopropyl)-2,2′-bipyrimidine], 10 µM.
With `COc1ccc(C2CC2c2cnc(-c3ncccn3)nc2)c(F)c1` (single isomer, unassigned) [Example 2, trans-5-(2-(2-Fluoro-4-methoxyphenyl)cyclopropyl)-2,2′-bipyrimidine], the 50% effective concentration (EC50) was found to be 0.23 µM.
On the same count and under the same terms, with `Cc1c(C2CC2c2cnc(-c3ncccn3)nc2)ccc(Cl)c1OCC1CC1` (single isomer, unassigned) [Example 61, trans-5-(2-(4-Chloro-3-(cyclopropylmethoxy)-2-methylphenyl)cyclopropyl)-2,2′-bipyrimidine] the figure was 0.43 µM.
Consider `COc1cc(C2CC2c2cnc(-c3ncccn3)nc2)ccc1Cl` (single isomer, unassigned) [Example 33, trans-5-(2-(4-Chloro-3-methoxyphenyl)cyclopropyl)-2,2′-bipyrimidine], for which the EC50 amounted to 0.031 µM.
For `O[C@@H]1CCN(c2cc(C3CC3c3cnc(-c4ncccn4)nc3)cc(F)c2F)C1` (single isomer, unassigned) [Example 105], the EC50 was determined as 0.097 µM.

As usually defined, the EC50 is the concentration at which the effect is half-maximal.
